Assay results: article PMC7817688, “Identification of 3-chymotrypsin like protease (3CLPro) inhibitors as potential anti-SARS-CoV-2 agents” (Communications Biology, 2021)
“And” between values parts separate entries of the source, which are not always exact repeats. Equal entries are not always repeated.

Target: SARS-CoV-2 3CLpro enzyme (Severe acute respiratory syndrome coronavirus 2, UniProt P0DTD1)
Assay: biochemical
Conditions: for percent enzymatic activity, individual values / percent enzymatic activity, AVG: DMSO treated control = 100%, data of Figs. 2-4; for percent enzymatic activity, AVG: mean of 3 values
[1] = dose-dependent study, 25 uM, individual values
[2] = dose-dependent study, 50 uM, individual values

## Cc1cnc(C(=O)N[C@H]2CCCCC/C=C\[C@@H]3C[C@@]3(C(=O)NS(=O)(=O)C3CC3)NC(=O)[C@@H]3C[C@@H](Oc4nc5ccccc5c5ccccc45)CN3C2=O)cn1 [Paritaprevir]
50 µM drug
  percent enzymatic activity, individual values: 25.5475% and 31.3869% and 37.2263%
  percent enzymatic activity, AVG: 31.3869%
dose-dependent study, 0.097656 uM, individual values
  % activity: 101.809% and 115.049%
dose-dependent study, 0.097656 uM, individual values, read-out: % activity
  activity at 0.097656 µM: 101%
dose-dependent study, 0.195313 uM, individual values
  % activity: 132.87% and 115.668%
dose-dependent study, 0.390625 uM, individual values
  % activity: 114.628% and 102.678%
dose-dependent study, 0.390625 uM, individual values, read-out: % activity
  activity at 0.390625 µM: 113%
dose-dependent study, 0.78125 uM, individual values
  % activity: 108.219% and 103.297%
dose-dependent study, 0.78125 uM, individual values, read-out: % activity
  activity at 0.78125 µM: 108%
dose-dependent study, 1.5625 uM, individual values
  % activity: 121.853%
dose-dependent study, 1.5625 uM, individual values, read-out: % activity
  activity at 1.5625 µM: 114%
dose-dependent study, 3.125 uM, individual values
  % activity: 108.712% and 136.698%
dose-dependent study, 6.25 uM, individual values
  % activity: 112.163% and 121.853%
dose-dependent study, 6.25 uM, individual values, read-out: % activity
  activity at 6.25 µM: 112%
dose-dependent study, 12.5 uM, individual values
  % activity: 103.781% and 112.575%
dose-dependent study, 12.5 uM, individual values, read-out: % activity
  activity at 12.5 µM: 102%
[1]
  % activity: 89.4838% and 96.4929%
  activity at 25 µM: 91%
[2]
  % activity: 58.9163% and 64.3286%
  activity at 50 µM: 61.4%
dose-dependent study, 100 uM, individual values
  % activity: 16.5163% and 15.0372% and 1.856%
Drugs 0 to 100 µM, 50 µM substrate, non-linear four variable fit, read-out: IC50 for SARS-CoV-2 3CL protease
  IC50: 73.4 µM
In vitro enzymatic assay at the tested doses
  inhibitory effect towards 3CLpro enzymatic activity (in words): partial inhibitory effect
read-out: inhibition of 3CLpro enzymatic activity, 50 µM drug
  inhibition at 50 µM: 70%
read-out: inhibition of 3CLpro enzymatic activity, 100 µM drug
  inhibition at 100 µM: ~80%

## CCOC(=O)C1=C[C@@H](OC(CC)CC)[C@H](NC(C)=O)[C@@H](N)C1 [Oseltamvir Phosphate]
50 µM drug
  percent enzymatic activity, individual values: 105.843% and 84.7982% and 96.5585%
  percent enzymatic activity, AVG: 95.7333%
